Results on 2 molecules are retold here after US20080176934A1, “Use Of Diosmetin Compounds In The Treatment And Prevention Of Thrombotic Pathologies” (Les Laboratoires Servier, priority 2005, published 2008).

Like-named read-outs stand apart in the source and are kept apart here.

For one assay, the system named is PAI-1 promoter. Briefly: PAI-1 promoter activity (PGL3/PAI-1 luciferase reporter) in transfected HepG2 cells. As to conditions: for Activity in cpm (PAI-1 promoter activity): 10 μM, 24 h, n=6; for inhibition at 10 µM: Homo sapiens, HepG2, 24 h, read-out: % inhibition/control (PAI-1 promoter activity). It is filed as cell-based, human. The method, then: The study is carried out on a line of human hepatocytes HepG2 (ATCC, no. HB-8065). The cells are cultured in a medium of MEM (minimal essential medium) with glutamax-1 (Gibco™) containing 10% FCS (foetal calf serum), 1% non-essential amino acids and 1% sodium pyruvate and supplemented with penicillin and streptomycin.
A fragment of 2.5 kb, corresponding to the PAI-1 promoter, extending from the nucleotides at positions −2442 to +136, was amplified by PCR and sub-cloned (Lopez et al., 2000, Atherosclerosis, 152, 359-366). In a final reaction volume of 50 μl, 2.5 units of Platinum® TaqDNA Polymerase High Fidelity (Invitrogen) are placed in the presence of 300 ng of human genomic DNA (Clontech), 300 μM of dNTP (deoxynucleotide triphosphate) (Clontech), 300 nM of primers in a medium containing the buffer specific to the enzyme, supplemented by 1.5 mM of MgCl2 and different concentrations of PCRx Enhancer System (Invitrogen), which facilitates amplification of the especially difficult sequences (0 to 4×). The set of primers used (Chen et al. Differential mechanisms of PAI-1 gene activation by transforming growth factor beta and tumor necrosis factor alpha in endothelial cells, 2001, Thrmb Haemost, 86, 1563-72) is as follows:
Ligation of the pGL3-Basic plasmid vector and the insert corresponding to the PAI-1 promoter was carried out by means of T4 DNA Ligase (LigaFast™ Rapid DNA Ligation System from Promega). Conventionally, during ligation, there is used an excess of insert which is equivalent to three times the amount of vector. Furthermore, because this insert is half as long as the vector (2.5 kb as opposed to 4.8 kb), maintaining stoichiometric equilibrium requires twice the mass of […]. 37.5 ng of insert and 25 ng of pGL3-Basic vector were therefore reacted in the presence of 3 units of T4 ligase, at ambient temperature.
The PGL3/PAI-1 plasmid is transfected into HepG2 cells. Transfection is carried out in plates having cells at 50% confluence, depositing Lipofectin® (1 mg/ml) and 1.5 μg of PGL3/PAI-1 plasmid in each of the wells. The Lipofectin® is activated for 30 min in an OPTI-MEM medium (GIBCO™) and then brought into contact for 15 min with the plasmids previously diluted with the medium. The cells are incubated for 6 hours at 37° C. in an atmosphere containing 5% CO2 and 95% […]. The transfection medium is withdrawn and replaced overnight by an enriched culture medium in order to stabilise the cells. Expression of the reporter genes is induced over 24 h in an MEM medium without serum. The cells are scratched and lysed in a lysis buffer (Dual-Luciferase® kit, Promega) and then held at −20° C.
The induction phase is 24 h for the HepG2 cells in the presence of TGFβ1 (1 ng/ml). During that induction phase, a PAI-1 expression inhibitor may be added 4 h before TGFβ1 and kept in contact with the cells until the end of the 24 h of the induction phase.
The PAI-1 promoter activity is determined by quantification of the luciferase activity produced (Dual-Luciferase® kit, Promega). To each well there is added a solution of luciferin, the substrate of firefly luciferase. […] The plate is incubated for 10 min in the dark because the luciferase activity is sensitive to light, and then a luminometer reading is started in order to quantify the photons emitted (Wallac, Perkin Elmer), the result obtained being the average cpm (counts per minute) over a period of 5 s.
6,8-Diallyl-5,7-dihydroxy-2-(2-allyl-3-hydroxy-4-methoxyphenyl)-4H-1-benzopyran-4-one, arbitrarily referred to as compound A, and T686 of formula 3(E)-benzylidene-4(E)-(3,4,5-trimethoxybenzylidene)pyrrolidine-2,5-dione (PAI-1 expression inhibitor of reference, from Tanabe) were tested at a concentration of 10 μM on HepG2 cells in the basal state and after induction with TGFβ1. The PAI-1 promoter activity is measured in the control condition and in the presence of inhibitors, in the basal and induced states.
(In general: Reporter assays use an easily measured gene product as a stand-in for the process of interest.)

Assay [1] relates to arterial thrombosis induced by FeCl3 on the abdominal aorta. Briefly: Model of arterial thrombosis induced by FeCl3 on the abdominal aorta in the rat. Type of assay: in vivo. Conditions: male CD rats, 30 mg/kg/day per os for 5 days, FeCl3 50% on aorta. The method, then: The studies were carried out on male CD rats weighing between 250 and 400 g (Charles River Laboratories). The experimental protocol carried out on groups of from 6 to 8 rats comprises a group for each compound under test to be compared with a control group in which the rats are treated with a solvent. These rats are used to study the effects of an antithrombotic in a model of arterial thrombosis induced by FeCl3 on the abdominal aorta (Tanaka et al. Z-335, a new thromboxane A2 receptor antagonist, prevents arterial thrombosis induced by ferric chloride in rats, 2000, Eur. J. Pharmacol., 401, 413-418).
The rats are treated with the compound under test, for example 6,8-diallyl-5,7-dihydroxy-2-(2-allyl-3-hydroxy-4-methoxyphenyl)-4H-1-benzopyran-4-one (30 mg/kg/day) by administration per os by gavage for 5 days before arterial thrombosis is induced in those rats. The rats are anaesthetised using pentobarbital 50 mg/kg by intraperitoneal administration and their abdominal aortas are exposed following laparotomy. […]
The activity of 6,8-diallyl-5,7-dihydroxy-2-(2-allyl-3-hydroxy-4-methoxyphenyl)-4H-1-benzopyran-4-one is evaluated as a function of the weight of the clot removed from the aorta, that activity being greater for a lesser weight of clot.

The mark [2] stands for this setting: HepG2, induced by TGFβ1 (1 ng/ml).

`C=CCc1c(-c2cc(=O)c3c(O)c(CC=C)c(O)c(CC=C)c3o2)ccc(OC)c1O` [Compound A, 6,8-diallyl-5,7-dihydroxy-2-(2-allyl-3-hydroxy-4-methoxyphenyl)-4H-1-benzopyran-4-one]: in the assay on PAI-1 promoter (HepG2, basal condition), the “Activity in cpm (PAI-1 promoter activity)” value (“Activity in cpm” below) was 445 ± 121 cpm and the inhibition at 10 µM turned out to be 69%. Also, in the assay with PAI-1 promoter (setting [2]), the “Activity in cpm” value turned out to be 765 ± 138 cpm and the inhibition at 10 µM was found to be 78%. For the same molecule, the “reduction in the weight of the clot with respect to the control” value in assay [1] is recorded as around 30%. The molecule further showed a Weight of clot in assay [1] (n=6, control 10.6 ± 0.7 mg) of 7.6 ± 0.4 mg.

Consider `COc1cc(/C=C2/C(=O)NC(=O)/C2=C/c2ccccc2)cc(OC)c1OC` [Compound T686, 3(E)-benzylidene-4(E)-(3,4,5-trimethoxybenzylidene)pyrrolidine-2,5-dione, reference compound], for which the “Activity in cpm” value with PAI-1 promoter (HepG2, basal condition) stood at 473 ± 143 cpm; with PAI-1 promoter (setting [2]) it was 1641 ± 173 cpm. Also, the inhibition at 10 µM in the assay on PAI-1 promoter (HepG2, basal condition) is 67%; in the assay on PAI-1 promoter (setting [2]), 52%.
